Test system: immortalized MSC cell line
Assay: Screen for hypoxia mimics with hypoxia response element reporter in immortalized MSC
Format: cell-based
Details: clonally expanded immortalized MSC cell line
From the text: Because previous screening methods were based mostly on cancer cells and the results thereof can not necessarily be extrapolated to MSC, a novel screening method was developed, based on an immortalized MSC. Using this screening method, we quickly screened a large panel of potential compounds for effects on MSC. Such screening method is useful for screening a large panel of compound for their ability to modulate (i.e. increase or decrease) an angiogenic capacity of a MSC. […]
It is possible to use for instance an (immortalized) MSC and transfect it with a HRE-luciferase construct as described in Said et al (56) or with a 5HRE-ODD-luc construct described in Saha et al (57). Detection of transcription of the reporter gene is then easily achieved by measuring luciferase activity (luminescence) of the cells after contacting said MSC with the compound. […] As a consequence, reporter gene expression is increased, which can be detected, in case of luciferase, by measuring an increase in luminescence in these cells. Vice versa, decreased luminescence is indicative for a compound able to inhibit angiogenesis, which compound may subsequently be used for anti-angiogenic therapy, for instance in anti-tumor therapy. […]

c1cnc2c(c1)ccc1cccnc12 [PHE, 1, 10-phenanthroline]
ability to mimic hypoxia in MSCs: able to mimic hypoxia in MSCs

— patent publication EP2607478A1, “Phenanthroline treated MSC” (Universiteit Twente, priority 2011, dated 2013)
